Data: the NIST ThermoML archive (doi:10.1021/je060271a)
Numbers after ± are expanded uncertainties.

Settings: 303.16 K, Liquid, Vibrating tube method

CCCCCC(=O)OCC(COC(=O)CCCCC)(COC(=O)CCCCC)COC(=O)CCCCC [pentaerythritol tetrahexanoate]
Settings	mass density [kg/m3]
380.8 kPa	988.5 ± 1.2
382.9 kPa	988.7 ± 1.2
385.3 kPa	988.6 ± 1.2
387.4 kPa	988.6 ± 1.2
454.3 kPa	988.6 ± 1.2
457.1 kPa	988.6 ± 1.2
461.3 kPa	988.6 ± 1.2
465.1 kPa	988.6 ± 1.2
468 kPa	988.6 ± 1.2
470.8 kPa	988.7 ± 1.2
474.1 kPa	988.6 ± 1.2
478 kPa	988.6 ± 1.2
481.2 kPa	988.6 ± 1.2
484.7 kPa	988.7 ± 1.2
488.4 kPa	988.7 ± 1.2
491.7 kPa	988.7 ± 1.2
495.5 kPa	988.7 ± 1.2
498.8 kPa	988.7 ± 1.2
502.4 kPa	988.7 ± 1.2
505.6 kPa	988.6 ± 1.2
509.2 kPa	988.8 ± 1.2
513.8 kPa	988.7 ± 1.2
517.4 kPa	988.7 ± 1.2
521.2 kPa	988.6 ± 1.2
525.6 kPa	988.7 ± 1.2
529.6 kPa	988.8 ± 1.2
534.1 kPa	988.7 ± 1.2
537.9 kPa	988.6 ± 1.2
542.3 kPa	988.9 ± 1.2
546.9 kPa	988.7 ± 1.2
550.9 kPa	988.7 ± 1.2
555.3 kPa	988.8 ± 1.2
559.5 kPa	988.8 ± 1.2
564.3 kPa	988.8 ± 1.2
569 kPa	988.8 ± 1.2
574.4 kPa	988.9 ± 1.2
692 kPa	988.8 ± 1.2
698.5 kPa	988.8 ± 1.2
706.1 kPa	988.8 ± 1.2
712.5 kPa	988.8 ± 1.2
719.3 kPa	988.9 ± 1.2
727 kPa	988.7 ± 1.2
734.3 kPa	988.8 ± 1.2
741.2 kPa	988.8 ± 1.2
748.1 kPa	988.8 ± 1.2
756.7 kPa	988.8 ± 1.2
763.8 kPa	988.9 ± 1.2
771.6 kPa	988.9 ± 1.2
779.1 kPa	988.8 ± 1.2
788.5 kPa	988.9 ± 1.2
796.3 kPa	988.8 ± 1.2
804.1 kPa	988.8 ± 1.2
811.9 kPa	988.9 ± 1.2
821.6 kPa	988.9 ± 1.2
829.8 kPa	988.8 ± 1.2
848 kPa	988.8 ± 1.2
856.6 kPa	988.9 ± 1.2
864.9 kPa	989 ± 1.2
1404 kPa	989.4 ± 1.2
1416.2 kPa	989.4 ± 1.2
1431.1 kPa	989.2 ± 1.2
1443.8 kPa	989.3 ± 1.2
1456.5 kPa	989.3 ± 1.2
1642.7 kPa	989.5 ± 1.2
1657.5 kPa	989.4 ± 1.2
1672.3 kPa	989.4 ± 1.2
1686.8 kPa	989.3 ± 1.2
1704.7 kPa	989.4 ± 1.2
1818.6 kPa	989.6 ± 1.2
1834.9 kPa	989.6 ± 1.2
1940.6 kPa	989.6 ± 1.2
1957.6 kPa	989.6 ± 1.2
1975.3 kPa	989.7 ± 1.2
1996.3 kPa	989.5 ± 1.2
2014.2 kPa	989.6 ± 1.2
2035.9 kPa	989.6 ± 1.2
2053.6 kPa	989.7 ± 1.2
2072.3 kPa	989.7 ± 1.2
2129.6 kPa	989.6 ± 1.2
2148.3 kPa	989.7 ± 1.2
2190 kPa	989.9 ± 1.2
2209.4 kPa	989.7 ± 1.2
2272.4 kPa	989.7 ± 1.2
4203.4 kPa	991.1 ± 1.2
4236.8 kPa	991 ± 1.2
4264.7 kPa	991.2 ± 1.2
4292.6 kPa	991.1 ± 1.2
4320.1 kPa	991.1 ± 1.2
4352.9 kPa	991.2 ± 1.2
4379.7 kPa	991.1 ± 1.2
4406.5 kPa	991.2 ± 1.2
4438.4 kPa	991.1 ± 1.2
4464.5 kPa	991.2 ± 1.2
4490.5 kPa	991.3 ± 1.2
4516.1 kPa	991.2 ± 1.2
4546.4 kPa	991.3 ± 1.2
4570.9 kPa	991.3 ± 1.2
4594.9 kPa	991.4 ± 1.2
4622.1 kPa	991.2 ± 1.2
4643.9 kPa	991.3 ± 1.2
4664.2 kPa	991.3 ± 1.2
4683 kPa	991.5 ± 1.2
4704.7 kPa	991.4 ± 1.2
4723 kPa	991.4 ± 1.2
4740.8 kPa	991.3 ± 1.2
4757.6 kPa	991.4 ± 1.2
4774.9 kPa	991.4 ± 1.2
4794.3 kPa	991.6 ± 1.2
4810.9 kPa	991.4 ± 1.2
4827 kPa	991.4 ± 1.2
4842.8 kPa	991.5 ± 1.2
4861.3 kPa	991.4 ± 1.2
4908.5 kPa	991.5 ± 1.2
5374.3 kPa	991.8 ± 1.2
5390.7 kPa	991.8 ± 1.2
5411 kPa	991.8 ± 1.2
5427.2 kPa	991.8 ± 1.2
5447.1 kPa	991.9 ± 1.2
5464.4 kPa	991.8 ± 1.2
5481.4 kPa	991.9 ± 1.2
5498.1 kPa	991.8 ± 1.2
5518.7 kPa	991.9 ± 1.2
5591.9 kPa	992 ± 1.2
5609.7 kPa	992 ± 1.2
5627.2 kPa	991.9 ± 1.2
5647.7 kPa	991.9 ± 1.2
5665.4 kPa	992 ± 1.2
5875.7 kPa	992.1 ± 1.2
5894 kPa	992.1 ± 1.2
5931.3 kPa	992.1 ± 1.2
5953.6 kPa	992.2 ± 1.2
5972 kPa	992.2 ± 1.2
5990.6 kPa	992.2 ± 1.2
6012.9 kPa	992.2 ± 1.2
6031.6 kPa	992.2 ± 1.2
6050.3 kPa	992.2 ± 1.2
6072.9 kPa	992.2 ± 1.2
6111.5 kPa	992.2 ± 1.2
10602 kPa	995.1 ± 1.2
10632 kPa	995.1 ± 1.2
10660 kPa	995.1 ± 1.2
10689 kPa	995 ± 1.2
10724 kPa	995.1 ± 1.2
10753 kPa	995.2 ± 1.2
10782 kPa	995.1 ± 1.2
